According to paper PMC6802093, “Structural characterization of HypX responsible for CO biosynthesis in the maturation of NiFe-hydrogenase” (Communications Biology, 2019):
Values belong to the compound of their own block, whether it stands above or below them.

Columns and labels:
HypX [1] = target: T1, HypX (Aquifex aeolicus, UniProt O67224, A392F/I419F); assay: X-ray crystallography; type: binding; conditions: co-purified from E. coli; extended conformation, without THF (THF-bound structure 6J1J also holds CoA)
T1 construct: gene hoxX; residues up to 562 described; acid-denatured mass 67,531 Da; monomer; N-terminal domain 1-270, C-terminal domain 289-542

HypX [2] = target: T2, HypX (Aquifex aeolicus, UniProt O67224); assay: X-ray crystallography; native MS; type: binding; conditions: co-purified from E. coli, none added; non-covalent; folded conformation, C-terminal part of cavity; also Form II crystal 6J1E
T2 construct: gene hoxX; residues up to 562 described; acid-denatured mass 67,531 Da; monomer; N-terminal domain 1-270, C-terminal domain 289-542

HypX [3] = target: T3, HypX (Aquifex aeolicus, UniProt O67224, Q15A/R131A/S194A/Q195A/N306A/R542A); assay: native MS; type: binding; conditions: non-denaturing, 500 mM ammonium acetate pH 6.8; co-purified from E. coli; CoA absent in crystal structure 6J1H
T3 construct: gene hoxX; residues up to 562 described; acid-denatured mass 67,531 Da; monomer; N-terminal domain 1-270, C-terminal domain 289-542

HypX [4] = target: T4, HypX (Aquifex aeolicus, UniProt O67224, R9A/Q15A/R131A/R542A); assay: X-ray crystallography; type: binding; conditions: co-purified from E. coli; folded conformation
T4 construct: gene hoxX; residues up to 562 described; acid-denatured mass 67,531 Da; monomer; N-terminal domain 1-270, C-terminal domain 289-542

HypX [5] = target: T1, HypX; assay: X-ray crystallography, crystal soaking; type: binding; conditions: CoA also bound, extended conformation; N-terminal region of cavity
HypX [6] = target: T2, HypX; assay: X-ray crystallography, crystal soaking; type: binding; conditions: Form I crystals soaked with THF; N-terminal domain, chain A only
[7] = target: A. aeolicus HypC (Aquifex aeolicus); assay: SEC; Superdex75 10/300GL, 50 mM Tris-HCl (pH 8.0), 200 mM NaCl, 1 mM DTT; HypC alone, HypD alone, and HypC and HypD mixed in equal molar amount; apparent masses
[8] = target: HypC/HypD complex (A. aeolicus) (Aquifex aeolicus) (UniProt O67225); assay: SEC; Superdex200 10/300GL, 50 mM Tris-HCl (pH 8.0), 200 mM NaCl, 1 mM DTT; HypC, HypD and HypX mixed in equal molar amount; apparent mass

T2 sequence (O67224 entry or part of it): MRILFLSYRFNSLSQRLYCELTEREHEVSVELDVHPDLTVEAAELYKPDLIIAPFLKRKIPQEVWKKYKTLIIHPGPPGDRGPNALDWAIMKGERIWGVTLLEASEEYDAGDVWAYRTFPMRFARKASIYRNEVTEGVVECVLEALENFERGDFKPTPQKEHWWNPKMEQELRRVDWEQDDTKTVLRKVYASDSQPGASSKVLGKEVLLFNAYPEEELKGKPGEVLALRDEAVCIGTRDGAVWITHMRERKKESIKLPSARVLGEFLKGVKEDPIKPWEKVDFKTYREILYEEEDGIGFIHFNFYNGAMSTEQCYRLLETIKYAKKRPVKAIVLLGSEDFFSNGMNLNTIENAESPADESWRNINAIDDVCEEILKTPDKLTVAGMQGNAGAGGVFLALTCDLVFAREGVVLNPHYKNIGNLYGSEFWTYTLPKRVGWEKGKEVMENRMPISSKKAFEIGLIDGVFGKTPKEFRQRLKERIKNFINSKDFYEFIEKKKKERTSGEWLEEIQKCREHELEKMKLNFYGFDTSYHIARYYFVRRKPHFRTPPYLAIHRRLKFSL
T1 sequence (O67224 entry or part of it A392F/I419F): as the sequence (O67224 entry or part of it) above, with A392F, I419F counted along it
T4 sequence (O67224 entry or part of it R9A/Q15A/R131A/R542A): as the sequence (O67224 entry or part of it) above, with R9A, Q15A, R131A, R542A counted along it
T3 sequence (O67224 entry or part of it Q15A/R131A/S194A/Q195A/N306A/R542A): as the sequence (O67224 entry or part of it) above, with Q15A, R131A, S194A, Q195A, N306A, R542A counted along it

Compound: CC(C)(COP(=O)(O)OP(=O)(O)OC[C@H]1O[C@@H](n2cnc3c(N)ncnc32)[C@H](O)[C@@H]1OP(=O)(O)O)[C@@H](O)C(=O)NCCC(=O)NCCS [CoA]
X-ray crystallography (HypX [1]): CoA is able to adopt the extended conformation in the A392F-I419F variant | X-ray crystallography; native MS (HypX [2]): HypX binds CoA constitutively with a high binding affinity | native MS (HypX [3]): showed two MS peaks due to apo (CoA-free) and holo (CoA-bound) form | X-ray crystallography (HypX [4]): this variant binds CoA with the folded conformation as is the case of wild-type

Compound: Nc1nc2c(c(=O)[nH]1)N[C@@H](CNc1ccc(C(=O)N[C@@H](CCC(=O)O)C(=O)O)cc1)CN2 [THF]
X-ray crystallography, crystal soaking (HypX [5]): THF is bound at the N-terminal region of the cavity at the same position | X-ray crystallography, crystal soaking (HypX [6]): We obtained HypX-THF complex by soaking Form I HypX crystals with THF

stoichiometry N [7]: 2
Compound: A. aeolicus HypC (natural protein)

stoichiometry N [8]: 1
Compound: HypX from Aquifex aeolicus (enzyme)
